Four compounds from ChEMBL document CHEMBL5108067, “Discovery of Potent OTUB1/USP8 Dual Inhibitors Targeting Proteostasis in Non-Small-Cell Lung Cancer” (J Med Chem, 2022) can be followed below.

The IC50 is the point on the concentration scale where inhibition reaches its midpoint. The term residual activity denotes what remains of the control signal, in per cent. Read a low residual activity as a large loss of activity. By ΔTm is commonly meant the shift of the melting midpoint relative to a reference.

Test [1] addresses T1, Ubiquitin carboxyl-terminal hydrolase 2 (Homo sapiens, UniProt O75604).
T1 sequence (O75604 whole entry): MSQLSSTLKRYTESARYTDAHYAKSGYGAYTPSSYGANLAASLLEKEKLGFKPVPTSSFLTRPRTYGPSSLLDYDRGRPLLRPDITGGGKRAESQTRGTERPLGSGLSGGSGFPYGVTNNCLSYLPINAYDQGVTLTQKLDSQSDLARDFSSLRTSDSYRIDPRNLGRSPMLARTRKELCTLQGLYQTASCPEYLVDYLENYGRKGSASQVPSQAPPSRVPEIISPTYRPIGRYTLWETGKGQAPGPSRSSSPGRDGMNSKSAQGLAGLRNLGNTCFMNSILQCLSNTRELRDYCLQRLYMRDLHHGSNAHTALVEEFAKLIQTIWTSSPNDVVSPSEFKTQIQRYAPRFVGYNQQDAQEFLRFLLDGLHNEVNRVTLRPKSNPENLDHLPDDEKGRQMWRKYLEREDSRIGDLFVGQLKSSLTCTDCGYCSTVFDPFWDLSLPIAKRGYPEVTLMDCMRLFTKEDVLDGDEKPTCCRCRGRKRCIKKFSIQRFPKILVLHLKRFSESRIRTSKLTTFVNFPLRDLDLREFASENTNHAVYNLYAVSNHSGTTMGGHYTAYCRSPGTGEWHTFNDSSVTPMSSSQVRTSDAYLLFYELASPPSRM
Put plainly: Inhibition of USP2 (unknown origin) using Ub-Rho measured after 0.5 to 3 hrs.

Test [2] has as its target T2, Ubiquitin carboxyl-terminal hydrolase 1 (Homo sapiens, UniProt O94782).
T2 sequence (O94782 whole entry): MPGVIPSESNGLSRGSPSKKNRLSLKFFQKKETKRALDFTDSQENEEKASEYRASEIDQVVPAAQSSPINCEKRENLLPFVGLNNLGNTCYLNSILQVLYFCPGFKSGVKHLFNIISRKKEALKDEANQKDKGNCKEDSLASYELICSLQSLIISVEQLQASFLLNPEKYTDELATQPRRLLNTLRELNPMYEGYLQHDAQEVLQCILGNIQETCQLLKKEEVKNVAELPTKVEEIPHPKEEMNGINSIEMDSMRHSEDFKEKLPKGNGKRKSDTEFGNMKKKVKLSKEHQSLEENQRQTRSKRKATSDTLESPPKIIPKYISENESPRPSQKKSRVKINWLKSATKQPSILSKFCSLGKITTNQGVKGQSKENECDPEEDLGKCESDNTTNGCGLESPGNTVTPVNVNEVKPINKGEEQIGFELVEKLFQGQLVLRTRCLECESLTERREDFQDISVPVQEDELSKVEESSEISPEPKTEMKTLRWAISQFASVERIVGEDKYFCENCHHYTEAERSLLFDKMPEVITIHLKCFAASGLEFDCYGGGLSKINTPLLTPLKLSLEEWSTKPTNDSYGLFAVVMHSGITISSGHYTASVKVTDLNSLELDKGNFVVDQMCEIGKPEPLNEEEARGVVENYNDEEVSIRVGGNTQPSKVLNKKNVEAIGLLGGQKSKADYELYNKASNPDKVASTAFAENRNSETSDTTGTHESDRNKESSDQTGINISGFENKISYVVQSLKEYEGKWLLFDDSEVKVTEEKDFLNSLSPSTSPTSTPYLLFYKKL
Description: Inhibition of USP1 (unknown origin) using Ub-Rho measured after 0.5 to 3 hrs.

Test [3] deals with T3, Ubiquitin carboxyl-terminal hydrolase 8 (Homo sapiens) (UniProt P40818).
T3 sequence (whole entry): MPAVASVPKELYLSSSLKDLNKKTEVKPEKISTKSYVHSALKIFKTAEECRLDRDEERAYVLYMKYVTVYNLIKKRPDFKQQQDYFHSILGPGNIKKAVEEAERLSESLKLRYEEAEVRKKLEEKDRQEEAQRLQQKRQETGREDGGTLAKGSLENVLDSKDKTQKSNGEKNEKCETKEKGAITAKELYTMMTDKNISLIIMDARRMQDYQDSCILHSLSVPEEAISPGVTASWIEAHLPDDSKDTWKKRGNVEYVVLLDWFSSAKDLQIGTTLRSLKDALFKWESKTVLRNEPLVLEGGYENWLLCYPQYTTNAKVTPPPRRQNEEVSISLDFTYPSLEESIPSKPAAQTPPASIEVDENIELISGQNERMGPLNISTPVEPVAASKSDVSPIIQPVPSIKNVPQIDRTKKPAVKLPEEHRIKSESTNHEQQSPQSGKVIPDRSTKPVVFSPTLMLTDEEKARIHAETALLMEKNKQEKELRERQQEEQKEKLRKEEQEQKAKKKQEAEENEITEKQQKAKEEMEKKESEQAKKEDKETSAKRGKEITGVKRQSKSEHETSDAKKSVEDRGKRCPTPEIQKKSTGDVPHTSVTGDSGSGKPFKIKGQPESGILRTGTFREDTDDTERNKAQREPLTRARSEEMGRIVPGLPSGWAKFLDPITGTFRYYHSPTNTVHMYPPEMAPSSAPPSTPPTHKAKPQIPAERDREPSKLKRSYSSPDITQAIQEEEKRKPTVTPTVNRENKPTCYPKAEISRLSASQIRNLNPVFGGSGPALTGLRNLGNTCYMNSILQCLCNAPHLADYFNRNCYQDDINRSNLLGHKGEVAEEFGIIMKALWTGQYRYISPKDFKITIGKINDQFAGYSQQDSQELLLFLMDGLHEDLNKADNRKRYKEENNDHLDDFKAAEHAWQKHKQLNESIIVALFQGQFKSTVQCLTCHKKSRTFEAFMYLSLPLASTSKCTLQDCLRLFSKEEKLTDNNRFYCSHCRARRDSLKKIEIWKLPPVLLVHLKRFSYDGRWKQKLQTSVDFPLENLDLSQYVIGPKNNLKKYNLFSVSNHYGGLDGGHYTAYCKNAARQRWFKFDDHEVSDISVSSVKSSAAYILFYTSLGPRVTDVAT
Description: Inhibition of N-terminal His-6 tagged USP8 (734 to 1110 residues) (unknown origin) expressed in Escherichia coli BL21 (DE3) cells at 10 nM measured after 3 hrs by fluorescence based Plate reader method relative to control. As to conditions: values are per cent of control.

The target of test [4] is Ubiquitin carboxyl-terminal hydrolase 7 (Homo sapiens, UniProt Q93009). Description: Inhibition of USP7 (unknown origin) using Ub-Rho measured after 0.5 to 3 hrs.
Ubiquitin carboxyl-terminal hydrolase 7, sequence (Q93009 whole entry, the tested form may be a part): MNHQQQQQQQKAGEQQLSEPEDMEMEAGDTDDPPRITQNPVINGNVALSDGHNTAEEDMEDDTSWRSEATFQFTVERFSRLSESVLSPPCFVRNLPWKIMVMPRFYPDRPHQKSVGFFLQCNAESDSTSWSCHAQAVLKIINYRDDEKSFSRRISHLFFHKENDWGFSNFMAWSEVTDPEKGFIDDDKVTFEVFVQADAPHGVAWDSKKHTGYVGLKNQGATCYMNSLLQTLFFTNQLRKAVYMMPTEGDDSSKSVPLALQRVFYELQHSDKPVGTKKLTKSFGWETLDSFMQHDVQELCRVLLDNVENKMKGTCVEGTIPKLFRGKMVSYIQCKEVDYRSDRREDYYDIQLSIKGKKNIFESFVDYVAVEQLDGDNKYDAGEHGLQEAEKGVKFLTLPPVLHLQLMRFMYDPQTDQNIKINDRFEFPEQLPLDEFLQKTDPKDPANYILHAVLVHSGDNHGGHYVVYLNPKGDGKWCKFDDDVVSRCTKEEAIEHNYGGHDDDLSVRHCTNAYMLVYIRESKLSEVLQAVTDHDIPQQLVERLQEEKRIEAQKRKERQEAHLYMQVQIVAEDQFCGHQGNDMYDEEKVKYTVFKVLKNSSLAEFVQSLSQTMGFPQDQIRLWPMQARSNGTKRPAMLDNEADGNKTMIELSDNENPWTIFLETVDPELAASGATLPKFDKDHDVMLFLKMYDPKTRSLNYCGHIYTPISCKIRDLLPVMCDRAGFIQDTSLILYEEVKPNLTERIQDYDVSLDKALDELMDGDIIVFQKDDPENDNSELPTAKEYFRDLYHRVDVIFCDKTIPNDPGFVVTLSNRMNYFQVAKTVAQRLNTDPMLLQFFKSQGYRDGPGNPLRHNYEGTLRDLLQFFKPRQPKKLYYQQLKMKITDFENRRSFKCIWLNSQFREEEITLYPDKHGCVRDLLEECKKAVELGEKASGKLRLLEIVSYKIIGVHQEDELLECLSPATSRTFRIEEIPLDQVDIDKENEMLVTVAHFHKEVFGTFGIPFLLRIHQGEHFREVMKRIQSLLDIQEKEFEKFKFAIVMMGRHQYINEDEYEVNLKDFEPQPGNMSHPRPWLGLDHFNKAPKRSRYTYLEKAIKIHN
The target in test [5] is T4, Ubiquitin thioesterase OTUB1 (Homo sapiens, UniProt Q96FW1). Description: Inhibition of N-terminal His-6 tagged OTUB1 (40 to 271 residues) (unknown origin) expressed in Escherichia coli BL21 (DE3) cells at 100 nM using Ub-Rho measured after 0.5 to 3 hrs by fluorescence based Plate reader method relative to control. As to conditions: time 0.5-3 hrs, values are per cent of control.
T4 sequence (Q96FW1 whole entry, the tested form may be a part): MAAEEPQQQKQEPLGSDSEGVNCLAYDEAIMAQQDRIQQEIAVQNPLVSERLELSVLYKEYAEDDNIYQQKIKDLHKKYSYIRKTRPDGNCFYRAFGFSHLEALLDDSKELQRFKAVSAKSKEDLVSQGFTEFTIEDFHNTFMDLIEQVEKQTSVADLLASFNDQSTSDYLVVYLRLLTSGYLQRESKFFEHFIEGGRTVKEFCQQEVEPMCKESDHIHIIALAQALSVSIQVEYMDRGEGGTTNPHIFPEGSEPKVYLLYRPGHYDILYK

The test system of the next test is NCI-H1975. Description: Antiproliferative activity against human NCI-H1975 cells harboring wild type KRAS incubated for 72 hrs by MTT assay. The test is classed as functional, cell-based. Conditions: NCI-H1975, 72 h. On the technique in general: Formazan colour is commonly taken as a measure of viable cells.
In test [6] the target is T4, Ubiquitin thioesterase OTUB1. Description: Destabilization of N-terminal His-6 tagged OTUB1 (40 to 271 residues) (unknown origin) expressed in Escherichia coli BL21 (DE3) cells assessed as reduction in melting temperature at 200 uM measured for 2 hrs in presence of dithiothreitol by SYPRO orange dye based thermal shift assay.

As for `CN1CC[C@@H](Oc2ccc(Cl)c(-c3nc4c(o3)C(=O)c3ccccc3C4=O)c2)C1`, the 50% inhibitory concentration (IC50) is 6.2 µM in test [1], 1.9 µM in test [2], more than 10 µM in test [4] and 0.088 µM in the test with NCI-H1975. In addition, the residual activity in test [3] worked out at 35.8%; in test [5], 13.7%. In addition, the ΔTm in test [6] stood at 1 °C.
`O=C1c2ccccc2C(=O)c2oc(-c3cccnc3)nc21`: the IC50 in test [1] was 5.1 µM; in test [2], 0.99 µM; in test [4], more than 10 µM; in the test on NCI-H1975, 0.098 µM. Further, the residual activity in test [3] was 43.4%; in test [5] it was 18.2%. Further, the ΔTm in test [6] is 1 °C.
With `CN1CC[C@@H](Oc2ccc(F)c(-c3nc4c(o3)C(=O)c3ccccc3C4=O)c2Cl)C1`, the IC50 in test [1] was 3.8 µM; in test [2], 1.37 µM; in test [4], more than 10 µM; with NCI-H1975 it was 0.118 µM. Also, the residual activity in test [3] worked out at 21.7%; in test [5] it was 7.3%. Also, the ΔTm in test [6] came out at 2.5 °C.
Regarding `CN1CC[C@@H](Oc2ccc(Cl)c(-c3nc4c(o3)C(=O)c3ccccc3C4=O)c2F)C1`, the IC50 in test [1] is more than 10 µM; in test [2], 2.1 µM; in test [4], more than 10 µM; with NCI-H1975, 0.121 µM. In addition, the values for the residual activity in test [3] and in test [5] were 37.2% and 7.4%, respectively. The ΔTm in test [6] came out at 1 °C.
